According to PubChem BioAssay AID248 (DTP/NCI, 2004):
“And” between values parts separate entries of the source, which are not always exact repeats. Identical values can stand only once. Inconclusive results and toxic doses are left out. No stated cut-off is given here; in the data, active means T/C of 150% or more; inactive means T/C below 125%. Peptide text beside a SMILES is read from it. * marks the point of attachment. Cbz = O=C(OCc1ccccc1)*

System: L1210 leukemia ip in BDF1 mice, survival T/C
Assay: NCI In Vivo Anticancer Drug Screen. Data for tumor model L1210 Leukemia (intraperitoneal) in B6D2F1 (BDF1) mice
Conditions: endpoint: mean survival time, higher = longer survival
How it was run: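 Tumor was transplanted into mice, which were then dosed with test compound or vehicle alone. Survival was recorded for each group, and the treated figure was expressed relative to the control figure.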

[1] = dose: 50.0 mg/kg/injection, schedule: Q01DX009 (ip), vehicle: saline with Tween-80
[2] = dose: 100.0 mg/kg/injection, schedule: Q01DX009 (ip), vehicle: saline with Tween-80
[3] = dose: 200.0 mg/kg/injection, schedule: Q01DX009 (ip), vehicle: saline with Tween-80
[4] = dose: 400.0 mg/kg/injection, schedule: Q01DX009 (ip), vehicle: saline with Tween-80
[5] = dose: 100.0 mg/kg/injection, schedule: Q01DX009 (ip), vehicle: Klucel (hydroxypropylcellulose) (HPC)
[6] = dose: 100.0 mg/kg/injection, schedule: Q04DX003 (ip), vehicle: Klucel (hydroxypropylcellulose) (HPC)
[7] = dose: 200.0 mg/kg/injection, schedule: Q01DX009 (ip), vehicle: Klucel (hydroxypropylcellulose) (HPC)
[8] = dose: 200.0 mg/kg/injection, schedule: Q04DX003 (ip), vehicle: Klucel (hydroxypropylcellulose) (HPC)
[9] = dose: 100.0 mg/kg/injection, schedule: Q01DX001 (ip), vehicle: saline
[10] = dose: 200.0 mg/kg/injection, schedule: Q01DX001 (ip), vehicle: saline
[11] = dose: 400.0 mg/kg/injection, schedule: Q01DX001 (ip), vehicle: saline
[12] = dose: 100.0 mg/kg/injection, schedule: Q01DX001 (ip), vehicle: Klucel (hydroxypropylcellulose) (HPC)
[13] = dose: 200.0 mg/kg/injection, schedule: Q01DX001 (ip), vehicle: Klucel (hydroxypropylcellulose) (HPC)
[14] = dose: 400.0 mg/kg/injection, schedule: Q01DX001 (ip), vehicle: Klucel (hydroxypropylcellulose) (HPC)
[15] = dose: 100.0 mg/kg/injection, schedule: Q04DX003 (ip), vehicle: saline
[16] = dose: 200.0 mg/kg/injection, schedule: Q04DX003 (ip), vehicle: saline
[17] = dose: 50.0 mg/kg/injection, schedule: Q01DX009 (ip), vehicle: saline
[18] = dose: 100.0 mg/kg/injection, schedule: Q01DX009 (ip), vehicle: saline
[19] = dose: 200.0 mg/kg/injection, schedule: Q01DX009 (ip), vehicle: saline
[20] = dose: 100.0 mg/kg/injection, schedule: Q01DX001 (ip), vehicle: carboxymethylcellulose (CMC)
[21] = dose: 200.0 mg/kg/injection, schedule: Q01DX001 (ip), vehicle: carboxymethylcellulose (CMC)
[22] = dose: 400.0 mg/kg/injection, schedule: Q01DX001 (ip), vehicle: carboxymethylcellulose (CMC)
[23] = dose: 400.0 mg/kg/injection, schedule: Q04DX003 (ip), vehicle: saline

Measured: T/C

COC(=O)c1ccc(Cl)c(Cl)c1
inactive: dose: 25.0 mg/kg/injection, schedule: Q01DX009 (ip), vehicle: saline with Tween-80 110 % of control | [1] 104 % of control | [2] 107 % of control | [3] 100 % of control | [4] 102 % of control

Oc1ccc2ccc3[nH]cnc3c2c1
inactive: [5] 101 % of control | [6] 95 % of control | [7] 104 % of control | [8] 95 % of control | dose: 400.0 mg/kg/injection, schedule: Q01DX009 (ip), vehicle: Klucel (hydroxypropylcellulose) (HPC) 97 % of control | dose: 400.0 mg/kg/injection, schedule: Q04DX003 (ip), vehicle: Klucel (hydroxypropylcellulose) (HPC) 94 % of control

Cc1cc(=O)[nH]c2nc(N)ccc12
inactive: dose: 50.0 mg/kg/injection, schedule: Q01DX001 (ip), vehicle: saline 101 % of control | [9] 93 % of control | [10] 93 % of control | [11] 101 % of control

COC(=O)C(CC(C)C)NC(=O)C(Cc1ccccc1)NC(=O)OCc1ccccc1 (stereo not drawn) (Cbz-Phe-Leu-OMe; configuration not given here)
inactive: [9] 98 % of control | [10] 93 % of control | [11] 91 % of control

COc1c(Cl)c(C)c(Cl)c(C)c1C#CC(=O)O
inactive: [12] 92 % of control | [6] 95 % of control | [13] 97 % of control | [8] 92 % of control | [14] 101 % of control

O=C(Nc1cccc(C(F)(F)F)c1)Oc1ccccc1F
inactive: [5] 91 % of control | [7] 92 % of control

CC(C(c1ccccc1)c1ccc(Cl)cc1)[N+](=O)[O-] (stereo not given)
inactive: dose: 22.0 mg/kg/injection, schedule: Q01DX009 (ip), vehicle: saline with Tween-80 102 % of control | dose: 33.0 mg/kg/injection, schedule: Q01DX009 (ip), vehicle: saline with Tween-80 96 % of control | [1] 94 % of control | dose: 75.0 mg/kg/injection, schedule: Q01DX009 (ip), vehicle: saline with Tween-80 112 % of control | [9] 87 % of control | [2] 103 % of control | dose: 100.0 mg/kg/injection, schedule: Q04DX003 (ip), vehicle: saline with Tween-80 95 % of control | [15] 102 % of control | [10] 95 % of control | dose: 200.0 mg/kg/injection, schedule: Q04DX003 (ip), vehicle: saline with Tween-80 102 % of control | [16] 89 % of control | [11] 88 % of control

c1ccc(C2=NC(c3ccccc3)N3CC23c2ccccc2)cc1 (stereo not given)
inactive: [12] 97 % of control | [13] 94 % of control

CCOC(=O)C(Cc1ccccc1Cl)(Cc1ccccc1Cl)c1ccccc1
inactive: [2] 92 % of control | [3] 90 % of control | [4] 90 % of control

CCCCC=C1CC(C)CC(C)C1 (stereo not given)
inactive: [1] 93 % of control | [2] 93 % of control

NC(Cc1ccccc1)c1ccc2oc3ccccc3c2c1 (stereo not given)
inactive: [12] 96 % of control | [13] 100 % of control | [14] 103 % of control

COc1ccc(CCNC(=S)NCCc2ccc(OC)c(OC)c2)cc1OC
inactive: dose: 25.0 mg/kg/injection, schedule: Q01DX009 (ip), vehicle: saline 100 % of control | [17] 92 % of control | [18] 98 % of control | [15] 86 % of control | [19] 92 % of control | [16] 86 % of control

O=C1c2cc(F)ccc2-c2cc([N+](=O)[O-])ccc21
inactive: [20] 94 % of control | [21] 94 % of control | [22] 99 % of control

CC1(c2ccc3ccccc3c2)OCC2(CCCC2)CO1
inactive: dose: 100.0 mg/kg/injection, schedule: Q04DX002 (ip), vehicle: gum acacia 117 % of control | dose: 200.0 mg/kg/injection, schedule: Q04DX002 (ip), vehicle: gum acacia 110 % of control | dose: 400.0 mg/kg/injection, schedule: Q04DX002 (ip), vehicle: gum acacia 103 % of control

CSc1ncnc2c1ncn2NC(=O)C1CC(=O)N(C)C1 (stereo not given)
inactive: [9] 107 % of control | [10] 103 % of control | [11] 100 % of control

CCCCOB(OCCCC)Oc1c(C(C)(C)C)cccc1C(C)(C)C
inactive: [18] 106 % of control | [15] 89 % of control | [19] 93 % of control | [16] 92 % of control | dose: 400.0 mg/kg/injection, schedule: Q01DX009 (ip), vehicle: saline 108 % of control | [23] 91 % of control

C/C(=N\N=C(N)N)c1ccccc1
inactive: dose: 15.0 mg/kg/injection, schedule: Q01DX Z (oral), vehicle: carboxymethylcellulose (CMC) 102 % of control | dose: 30.0 mg/kg/injection, schedule: Q01DX Z (oral), vehicle: carboxymethylcellulose (CMC) 97 % of control

CC(C)CCCC(C)CCO (stereo not given)
inactive: [17] 97 % of control | [18] 105 % of control | [19] 103 % of control

CCOC(=O)CNc1ccc(F)c(Cl)c1
inactive: dose: 100.0 mg/kg/injection, schedule: Q04DX002 (ip), vehicle: Klucel (hydroxypropylcellulose) (HPC) 106 % of control and 108 % of control | dose: 200.0 mg/kg/injection, schedule: Q04DX002 (ip), vehicle: Klucel (hydroxypropylcellulose) (HPC) 98 % of control and 112 % of control | dose: 400.0 mg/kg/injection, schedule: Q04DX002 (ip), vehicle: Klucel (hydroxypropylcellulose) (HPC) 102 % of control | dose: 600.0 mg/kg/injection, schedule: Q04DX002 (ip), vehicle: Klucel (hydroxypropylcellulose) (HPC) 98 % of control

Nc1ccc2cc(S(=O)(=O)O)ccc2c1
inactive: [15] 96 % of control | [16] 94 % of control | [23] 94 % of control

CCOC(=O)N1Cc2cc3cc(OC)ccc3nc2C1
inactive: dose: 50.0 mg/kg/injection, schedule: Q01DX009 (ip), vehicle: acetone 98 % of control | dose: 100.0 mg/kg/injection, schedule: Q01DX009 (ip), vehicle: acetone 95 % of control | [15] 94 % of control | dose: 200.0 mg/kg/injection, schedule: Q01DX009 (ip), vehicle: acetone 95 % of control | [16] 89 % of control | [23] 105 % of control

O=C1c2c(O)cccc2C(C2OC(CO)C(O)C(O)C2O)c2cc(CO)cc(O)c21 (stereo not given)
inactive: [9] 98 % of control | [10] 98 % of control | [11] 104 % of control

O=C1c2cc(Cl)ccc2-c2c(NC(=O)C(Cl)Cl)cc(Cl)cc21
inactive: [20] 91 % of control | [21] 93 % of control | [22] 96 % of control

O=[N+]([O-])c1ccc(N/N=C2\Cc3ccccc3Cc3ccccc32)c([N+](=O)[O-])c1
inactive: dose: 50.0 mg/kg/injection, schedule: Q01DX001 (ip), vehicle: Klucel (hydroxypropylcellulose) (HPC) 90 % of control | [12] 98 % of control | [13] 90 % of control
